Reference: patent US8906868B2, “Aminoglycoside derivatives” (Rempex Pharmaceuticals, Inc., priority 2010, dated 2014)
≈ marks a conversion by molar mass, not a printed value. Like-named read-outs stand apart in the source and are kept apart here.

Key:
ECM6011 aph(3′)-I = experiment: microbe, parasite or virus in culture; assay type: cell-based, Escherichia coli; conditions: Escherichia coli, read-out: Compound MIC on Bacterial Strains: ECM6011 aph(3′)-I
Method in brief: (§1)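 Broth microdilution per CLSI M7-A7 in cation-adjusted Mueller Hinton broth, 2-fold serial dilutions, inoculum 5×10^5 CFU/ml from overnight colonies. Incubated 18 hours at 35° C. MIC read as turbidity at 600 nm, confirmed visually.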

ECM6010 ant(2″)-I = experiment: microbe, parasite or virus in culture; assay type: cell-based, Escherichia coli; conditions: Escherichia coli, read-out: Compound MIC on Bacterial Strains: ECM6010 ant(2″)-I
Method in brief: as §1

ECM6006 aph(3′)-III = experiment: microbe, parasite or virus in culture; assay type: cell-based, Escherichia coli; conditions: Escherichia coli, read-out: Compound MIC on Bacterial Strains: ECM6006 aph(3′)-III
Method in brief: as §1

ECM6009 aac(3)-II = experiment: microbe, parasite or virus in culture; assay type: cell-based, Escherichia coli; conditions: Escherichia coli, read-out: Compound MIC on Bacterial Strains: ECM6009 aac(3)-II
Method in brief: as §1

EC1002 aph(3′)-IV = experiment: organism not typed; assay type: cell-based; conditions: read-out: Compound MIC on Bacterial Strains: EC1002 aph(3′)-IV
Method in brief: as §1

Sa 287 aac(6′) + aph(2″) = experiment: microbe, parasite or virus in culture; assay type: cell-based, Staphylococcus aureus; conditions: Staphylococcus aureus, 18 h; Table 5; read-out: Compound MIC on Bacterial Strains: Staphylococcus aureus Sa 287 aac(6′) + aph(2″)
Method: To compare microbiological activity of the test compounds, minimum inhibitory concentrations (MIC.s) were determined. Antibiotic MICs were obtained using the broth microdilution method according to Clinical and Laboratory Standards Institute (CLSI) approved guidelines (Methods for dilution antimicrobial susceptibility tests for bacteria that grow aerobically; approved standard—7th ed. CLSI document M7-A7. Clinical and Laboratory Standards Institute, Wayne, Pa., incorporated herein by reference in its entirety). Antibiotics were dissolved as specified by CLSI (Performance standards for antimicrobial susceptibility testing; Seventeenth informational supplement. CLSI document M100-S17. Clinical and Laboratory Standards Institute, Wayne, Pa., incorporated herein by reference in its entirety), and were serially diluted 2-fold in cation adjusted Mueller Hinton Broth (CaMHB) at 2× concentration. Bacterial inoculums were prepared in CaMHB by suspension of a colony from an agar plate that was prepared the previous day to obtain a final concentration of 5×10^5CFU/ml. The plates were incubated for 18 hours at 35° C. […] MIC.s were determined by reading the turbidity of plate wells using a SpectraMax Plus384 plate reader (Molecular Devices, Sunnyvale, Calif., USA) at 600 nm and were confirmed by visual inspection.

PAM3072 aac(6′)-II = experiment: microbe, parasite or virus in culture; assay type: cell-based, Pseudomonas aeruginosa; conditions: Pseudomonas aeruginosa, Table 5; read-out: Compound MIC on Bacterial Strains: Pseudomonas aeruginosa PAM3072 aac(6′)-II
Method in brief: (§2)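 Broth microdilution per CLSI guidelines: compounds serially diluted 2-fold in cation-adjusted Mueller Hinton broth, inoculum 5×10^5 CFU/ml from overnight colonies, 18 hours at 35° C. MIC read by turbidity at 600 nm and confirmed visually.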

PAM3073 aac(6′)-I = experiment: microbe, parasite or virus in culture; assay type: cell-based, Pseudomonas aeruginosa; conditions: Pseudomonas aeruginosa, Table 5; read-out: Compound MIC on Bacterial Strains: Pseudomonas aeruginosa PAM3073 aac(6′)-I
Method in brief: as §2

[1] = system: Acinetobacter baumannii (ATCC 19606); experiment: MIC, broth microdilution; conditions: Acinetobacter baumannii, ATCC19606, read-out: Compound MIC on Bacterial Strains: A. baumannii ATCC 19606
[2] = system: Staphylococcus aureus (ATCC 29213); experiment: MIC, broth microdilution; conditions: Staphylococcus aureus
ACM1006 acc(6′)-Ib = experiment: microbe, parasite or virus in culture; assay type: cell-based, Acinetobacter baumannii; conditions: Acinetobacter baumannii; Table 4; read-out: Compound MIC on Bacterial Strains: Acinetobacter baumannii ACM1006 acc(6′)-Ib
Method in brief: as §2

ACM1005 ATCC 19004 = experiment: MIC, broth microdilution; assay type: cell-based, Acinetobacter baumannii; conditions: Acinetobacter baumannii, ATCC19004; Table 4; read-out: Compound MIC on Bacterial Strains: Acinetobacter baumannii ACM1005 ATCC 19004
Method in brief: as §2

[3] = system: Escherichia coli (ATCC 25922); experiment: MIC, broth microdilution; conditions: Escherichia coli
[4] = system: Pseudomonas aeruginosa (ATCC 27853); experiment: MIC, broth microdilution; conditions: Pseudomonas aeruginosa
EC1001 acc(6′)-Ib = experiment: microbe, parasite or virus in culture; assay type: cell-based, Escherichia coli; conditions: Escherichia coli; Table 4; read-out: Compound MIC on Bacterial Strains: Escherichia coli EC1001 acc(6′)-Ib
Method in brief: as §2

[5] = system: ECM6007 aac(6′) + aph(2″); experiment: microbe, parasite or virus in culture; assay type: cell-based, Escherichia coli; conditions: Escherichia coli, 18 h; Table 4; read-out: Compound MIC on Bacterial Strains: Escherichia coli ECM6007 aac(6′) + aph(2″)
Method in brief: as §2

rats = experiment: Nephrotoxicity of test compounds in rats; conditions: once daily subcutaneous
[6] = system: Klebsiella pneumonia (ATCC 43816); experiment: MIC, broth microdilution; conditions: Klebsiella pneumoniae, ATCC43816, read-out: Compound MIC on Bacterial Strains: K. pneumonia ATCC 43816
ECM6003 rmtB = experiment: microbe, parasite or virus in culture; assay type: cell-based, Escherichia coli; conditions: Escherichia coli; Table 3; read-out: Compound MIC on Bacterial Strains: ECM6003 rmtB
Method in brief: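 Broth microdilution per CLSI M7-A7 in cation-adjusted Mueller Hinton broth with 2-fold serial dilutions and 5×10^5 CFU/ml inoculum. Incubated 18 hours at 35 °C; MIC read by turbidity at 600 nm and confirmed visually.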

[7] = ATCC29213, read-out: Compound MIC on Bacterial Strains: S. aureus ATCC 29213, QC strain, Table 2
[8] = ATCC29213, read-out: Compound MIC on Bacterial Strains: Staphylococcus aureus SAM1000 ATCC 29213, Table 5
[9] = ATCC25922, read-out: Compound MIC on Bacterial Strains: E. coli ATCC 25922
[10] = ATCC25922, read-out: Compound MIC on Bacterial Strains: ECM6000 ATCC 25922
[11] = ATCC25922, read-out: Compound MIC on Bacterial Strains: Escherichia coli ECM6000 ATCC 25922
[12] = ATCC27853, read-out: Compound MIC on Bacterial Strains: P. aeruginosa ATCC 27853
[13] = ATCC27853, read-out: Compound MIC on Bacterial Strains: Pseudomonas aeruginosa PAM3034 ATCC 27853

Row | SMILES | MIC (ECM6011 aph(3′)-I) [µg/mL] | MIC (ECM6010 ant(2″)-I) [µg/mL] | MIC (ECM6006 aph(3′)-III) [µg/mL] | MIC (ECM6009 aac(3)-II) [µg/mL] | MIC (EC1002 aph(3′)-IV) [µg/mL] | MIC (Sa 287 aac(6′) + aph(2″)) [µg/mL] | MIC (PAM3072 aac(6′)-II) [µg/mL] | MIC (PAM3073 aac(6′)-I) [µg/mL] | MIC [1] [µg/mL] | MIC [2, 7] [µg/mL] | MIC [2, 8] [µg/mL] | MIC (ACM1006 acc(6′)-Ib) [µg/mL] | MIC (ACM1005 ATCC 19004) [µg/mL] | MIC [3, 9] [µg/mL] | MIC [3, 10] [µg/mL] | MIC [3, 11] [µg/mL] | MIC [4, 12] [µg/mL] | MIC [4, 13] [µg/mL] | MIC (EC1001 acc(6′)-Ib) [µg/mL] | MIC [5] [µg/mL] | further results
1 | CN[C@@H]1[C@@H](O)[C@@H](O[C@@H]2[C@@H](O)[C@H](O[C@H]3O[C@H](CNCCO)CC[C@H]3N)[C@@H](N)C[C@H]2NC(=O)[C@@H](O)CCN)OC[C@]1(C)O [Compound 1, (2S)-4-amino-N-((1R,2S,3S,4R,5S)-5-amino-4-((2R,3R,6S)-3-amino-6-((2-hydroxyethylamino)methyl)tetrahydro-2H-pyran-2-yloxy)-2-((2R,3R,5R)-3,5-dihydroxy-5-methyl-4-(methylamino)tetrahydro-2H-pyran-2-yloxy)-3-hydroxycyclohexyl)-2-hydroxybutanamide] | < 1 | < 1 | 1 to 8 (≈ 1.68 to 13.5 µM) | < 1 | < 1 | 1 to 8 | > 8 | 1 to 8 (≈ 1.68 to 13.5 µM) | > 8 | < 1 | < 1 | < 1 | < 1 | < 1 | < 1 | < 1 | 1 to 8 (≈ 1.68 to 13.5 µM) | 1 to 8 (≈ 1.68 to 13.5 µM) | < 1 | < 1 | Histopathology Results After 7 days of Dosing (rats; 10 mg/kg/day): No Change; Histopathology Results After 14 days of Dosing (rats; 10 mg/kg/day): No Change; Histopathology Results After 7 days of Dosing (rats; 30 mg/kg/day): Mild Nephrosis; Histopathology Results After 14 days of Dosing (rats; 30 mg/kg/day): Moderate to Severe Nephrosis; Histopathology Results After 7 days of Dosing (rats; 100 mg/kg/day): Severe Nephrosis; Histopathology Results After 14 days of Dosing (rats; 100 mg/kg/day): 4/4 Died; MIC [6]: < 1 µg/mL; MIC (ECM6003 rmtB): > 8 µg/mL
2 | CN[C@@H]1[C@@H](O)[C@@H](O[C@@H]2[C@@H](O)[C@H](O[C@H]3O[C@H](CNCCO)CC[C@H]3N)[C@@H](N)C[C@H]2NC(=O)[C@@H](O)CN)OC[C@]1(C)O [Compound 2, (S)-3-amino-N-((1R,2S,3S,4R,5S)-5-amino-4-((2R,3R,6S)-3-amino-6-((2-hydroxyethylamino)methyl)tetrahydro-2H-pyran-2-yloxy)-2-((2R,3R,4R,5R)-3,5-dihydroxy-5-methyl-4-(methylamino)tetrahydro-2H-pyran-2-yloxy)-3-hydroxycyclohexyl)-2-hydroxypropanamide] | < 1 | < 1 | < 1 | < 1 | 1 to 8 (≈ 1.72 to 13.8 µM) | < 1 | > 8 | 1 to 8 (≈ 1.72 to 13.8 µM) | > 8 | < 1 | < 1 | 1 to 8 (≈ 1.72 to 13.8 µM) | 1 to 8 (≈ 1.72 to 13.8 µM) | < 1 | < 1 | < 1 | 1 to 8 (≈ 1.72 to 13.8 µM) | 1 to 8 (≈ 1.72 to 13.8 µM) | < 1 | < 1 | Histopathology Results After 7 days of Dosing (rats; 10 mg/kg/day): Minimal Tubular Eosinophilia;; Histopathology Results After 14 days of Dosing (rats; 10 mg/kg/day): No change; Histopathology Results After 7 days of Dosing (rats; 30 mg/kg/day): Minimal Tubular Eosinophilia;; Histopathology Results After 14 days of Dosing (rats; 30 mg/kg/day): Minimal to Mild Dilatation; Histopathology Results After 7 days of Dosing (rats; 100 mg/kg/day): Mild Tubular Eosinophila; Histopathology Results After 14 days of Dosing (rats; 100 mg/kg/day): No Deaths; Moderate to Severe; MIC [6]: < 1 µg/mL; MIC (ECM6003 rmtB): > 8 µg/mL
